For one compound, IC50 results are on record in paper PMC6320911, “Discovery of a Natural Syk Inhibitor from Chinese Medicine through a Docking-Based Virtual Screening and Biological Assay Study” (Molecules, 2018).

For the experiment, the target named is T1, Spleen tyrosine kinase (Syk) (Homo sapiens, UniProt P43405).
T1 construct: Syk (ab60886)
In words: ADP-Glo luminescent kinase assay with dose-response ([…] ATP in substrate solution, poly Glu:Tyr […]). The experiment is classed as biochemical. In general terms: ADP-Glo first removes unused ATP, then detects ADP through luciferase.

Usually IC50 stands for the point on the concentration scale where inhibition reaches its midpoint. `Cc1coc2c1C(=O)C(=O)c1c-2ccc2c(C)cccc12` [compound 13, Tanshinone I] showed an IC50 of 1640 nM.
